According to ChEMBL document CHEMBL4831492, “Design and synthesis of 2-(2-isonicotinoylhydrazineylidene)propanamides as InhA inhibitors with high antitubercular activity” (Eur J Med Chem, 2021):
Values after ≈ are worked out from the molar mass of the structure shown. Active and inactive are the calls of the source. No cut-off for these calls is given here.

Key:
[1] = system: Mycobacterium kansasii; test: Antimycobacterial activity against drug resistant Mycobacterium kansasii 6509/96 assessed as minimal inhibitory concentration required for complete inhibition of mycobacterial growth incubated for 14 days; format: functional; conditions: 6509/96, 336 h, time 14 day
[2] = system: Mycobacterium avium; test: Antimycobacterial activity against drug resistant Mycobacterium avium 330/88 assessed as inhibition of mycobacterial growth at 250 uM incubated for 14 days; format: functional, organism-based; conditions: time 14.0 day
[3] = system: Mycobacterium kansasii; test: Antimycobacterial activity against drug resistant Mycobacterium kansasii 6509/96 assessed as minimal inhibitory concentration required for complete inhibition of mycobacterial growth incubated for 7 days; format: functional; conditions: 6509/96, 168 h, time 7 day
[4] = system: Mycobacterium avium; test: Antimycobacterial activity against drug resistant Mycobacterium avium 330/88 assessed as inhibition of mycobacterial growth at 250 uM incubated for 21 days; format: functional, organism-based; conditions: time 21.0 day
[5] = system: Mycobacterium kansasii; test: Antimycobacterial activity against drug resistant Mycobacterium kansasii 6509/96 assessed as minimal inhibitory concentration required for complete inhibition of mycobacterial growth incubated for 21 days; format: functional; conditions: 6509/96, 504 h, time 21 day
[6] = system: Mycobacterium tuberculosis; test: Antimycobacterial activity against drug susceptible Mycobacterium tuberculosis H37Rv assessed as minimal inhibitory concentration required for complete inhibition of mycobacterial growth incubated for 21 days; format: functional; conditions: 504 h, time 21 day
[7] = system: Mycobacterium tuberculosis; test: Antimycobacterial activity against drug susceptible Mycobacterium tuberculosis H37Rv assessed as minimal inhibitory concentration required for complete inhibition of mycobacterial growth incubated for 14 days; format: functional; conditions: 336 h, time 14 day
[8] = system: Mycobacterium avium; test: Antimycobacterial activity against drug resistant Mycobacterium avium 330/88 assessed as inhibition of mycobacterial growth at 500 uM incubated for 14 days; format: functional, organism-based; conditions: time 14.0 day
[9] = system: Mycobacterium avium; test: Antimycobacterial activity against drug resistant Mycobacterium avium 330/88 assessed as inhibition of mycobacterial growth at 500 uM incubated for 21 days; format: functional, organism-based; conditions: time 21.0 day
[10] = system: HepG2; test: Cytotoxicity against human HepG2 cells assessed as reduction in cell viability incubated overnight followed by compound washout by MTT assay; format: cell-based
[11] = system: Mycobacterium kansasii; test: Antimycobacterial activity against drug resistant Mycobacterium kansasii 235/80 assessed as minimal inhibitory concentration required for complete inhibition of mycobacterial growth incubated for 14 days; format: functional; conditions: 235/80, 336 h, time 14 day
[12] = system: Mycobacterium tuberculosis; test: Inhibition of mycolic acid synthesis in Mycobacterium tuberculosis H37Ra assessed as decrease in production of standard fatty acid at MIC incubated for 24 hrs followed by 14C labelling and further incubated for 24 hrs by TLC based autoradiography analysis; format: functional, organism-based; conditions: time 48.0 hrs
[13] = Selectivity index, ratio of CC50 for cytotoxicity against human HepG2 cells to MIC for antimycobacterial activity against drug susceptible Mycobacterium […]; format: toxicity, cell-based; conditions: read-out: Selectivity Index
[14] = system: Mycobacterium tuberculosis; test: Antimycobacterial activity against Mycobacterium tuberculosis H37Ra carrying pMC261/pVV16 plasmid assessed as bacterial growth inhibition incubated for 28 days by drop dilution method; format: functional; conditions: 672 h, time 28 day
[15] = system: Mycobacterium kansasii; test: Antimycobacterial activity against drug resistant Mycobacterium kansasii 235/80 assessed as minimal inhibitory concentration required for complete inhibition of mycobacterial growth incubated for 21 days; format: functional; conditions: 235/80, 504 h, time 21 day
[16] = system: Mycobacterium avium; test: Antimycobacterial activity against drug resistant Mycobacterium avium 330/88 assessed as inhibition of mycobacterial growth at 125 uM incubated for 21 days; format: functional, organism-based; conditions: time 21.0 day
[17] = system: Mycobacterium tuberculosis; test: Inhibition of mycolic acid synthesis in Mycobacterium tuberculosis H37Ra assessed as decrease in production of trehalose dimycolates at MIC incubated for 24 hrs followed by 14C labelling and further incubated for 24 hrs by TLC based autoradiography analysis; format: functional, organism-based; conditions: time 48.0 hrs
[18] = system: Mycobacterium tuberculosis; test: Inhibition of mycolic acid synthesis in Mycobacterium tuberculosis H37Ra assessed as decrease in production of trehalose monomycolates at MIC incubated for 24 hrs followed by 14C labelling and further incubated for 24 hrs by TLC based autoradiography analysis; format: functional, organism-based; conditions: time 48.0 hrs
[19] = Selectivity index, ratio of CC50 for cytotoxicity against human HepG2 cells to MIC for antimycobacterial activity against drug susceptible Mycobacterium tuberculosis H37Rv; format: toxicity, cell-based; conditions: read-out: Selectivity Index
[20] = system: Mycobacterium tuberculosis; test: Inhibition of mycolic acid synthesis in Mycobacterium tuberculosis H37Ra assessed as decrease in production of mycolic acid at MIC incubated for 24 hrs followed by 14C addition and further incubated for 24 hrs by TLC based autoradiography analysis; format: functional, organism-based; conditions: time 48.0 hrs
[21] = system: HepG2; test: Cytostatic activity in human HepG2 cells assessed as reduction in cell viability incubated overnight followed by compound washout and further incubated for 72 hrs in medium containing serum by MTT assay; format: functional, cell-based; conditions: HepG2, 72 h
[22] = system: Mycobacterium kansasii; test: Antimycobacterial activity against drug resistant Mycobacterium kansasii 235/80 assessed as minimal inhibitory concentration required for complete inhibition of mycobacterial growth incubated for 7 days; format: functional; conditions: 235/80, 168 h, time 7 day
[23] = system: Mycobacterium avium; test: Antimycobacterial activity against drug resistant Mycobacterium avium 330/88 assessed as inhibition of mycobacterial growth at 125 uM incubated for 14 days; format: functional, organism-based; conditions: time 14.0 day
[24] = system: Mycobacterium kansasii; test: Antimycobacterial activity against drug resistant Mycobacterium kansasii 235/80 assessed as inhibition of mycobacterial growth at 62.5 uM incubated for 21 days; format: functional, organism-based; conditions: time 21.0 day
[25] = system: Mycobacterium kansasii; test: Antimycobacterial activity against drug resistant Mycobacterium kansasii 235/80 assessed as inhibition of mycobacterial growth at 62.5 uM incubated for 14 days; format: functional, organism-based; conditions: time 14.0 day
[26] = system: Mycobacterium avium; test: Antimycobacterial activity against drug resistant Mycobacterium avium 330/88 assessed as minimal inhibitory concentration required for complete inhibition of mycobacterial growth incubated for 14 days; format: functional; conditions: 330/88, 336 h, time 14 day
[27] = system: Mycobacterium avium; test: Antimycobacterial activity against drug resistant Mycobacterium avium 330/88 assessed as minimal inhibitory concentration required for complete inhibition of mycobacterial growth incubated for 21 days; format: functional; conditions: 330/88, 504 h, time 21 day

Row | Compound | MIC [1] | MIC [3] | MIC [5] | MIC [6] | MIC [7] | Activity [8] | Activity [9] | IC50 [10] | MIC [11] | selectivity ratio [13] | MIC [15] | Activity [16] | selectivity ratio [19] | IC50 [21] | MIC [22] | Activity [23] | MIC [26] | MIC [27] | also measured
1 | C/C(=N\NC(=O)c1ccncc1)C(=O)Nc1ccc(SC(F)(F)F)cc1 | 4 µM (≈ 1.53 µg/mL) | 4 µM (≈ 1.53 µg/mL) | 4 µM (≈ 1.53 µg/mL) | 0.5 µM (≈ 0.191 µg/mL) | 0.5 µM (≈ 0.191 µg/mL) | – | – | – | – | – | – | – | – | – | – | – | – | – | Activity [2]: inactive; Activity [4]: inactive
2 | C/C(=N\NC(=O)c1ccncc1)C(=O)Nc1cccc(F)c1 | 4 µM (≈ 1.2 µg/mL) | 2 µM (≈ 0.601 µg/mL) | 8 µM (≈ 2.4 µg/mL) | 0.25 µM (≈ 0.0751 µg/mL) | 0.25 µM (≈ 0.0751 µg/mL) | inactive | inactive | – | – | – | – | – | – | – | – | – | – | – | –
3 | C/C(=N\NC(=O)c1ccncc1)C(=O)Nc1cccc(OC(F)(F)F)c1 | 8 µM (≈ 2.93 µg/mL) | 4 µM (≈ 1.47 µg/mL) | 8 µM (≈ 2.93 µg/mL) | 0.5 µM (≈ 0.183 µg/mL) | 0.125 µM (≈ 0.0458 µg/mL) | inactive | inactive | – | – | – | – | – | – | – | – | – | – | – | –
4 | C/C(=N\NC(=O)c1ccncc1)C(=O)Nc1ccc(OC(F)(F)F)cc1 | 2 µM (≈ 0.733 µg/mL) | 2 µM (≈ 0.733 µg/mL) | 4 µM (≈ 1.47 µg/mL) | ≤ 0.03 µM | ≤ 0.03 µM | – | – | > 50 µM | 8 µM (≈ 2.93 µg/mL) | > 12.5 | 16 µM (≈ 5.86 µg/mL) | inactive | > 1670 | > 50 µM | 8 µM (≈ 2.93 µg/mL) | inactive | – | – | inhibition [12]: inactive; MIC [14]: 0.3 µM (≈ 0.11 µg/mL); inhibition [17]: Active; inhibition [18]: Active; inhibition [20]: Active
5 | C/C(=N\NC(=O)c1ccncc1)C(=O)Nc1cccc(Cl)c1 | 2 µM (≈ 0.633 µg/mL) | 2 µM (≈ 0.633 µg/mL) | 4 µM (≈ 1.27 µg/mL) | 0.125 µM (≈ 0.0396 µg/mL) | 0.125 µM (≈ 0.0396 µg/mL) | – | – | > 50 µM | – | > 12.5 | – | inactive | > 400 | > 50 µM | 32 µM (≈ 10.1 µg/mL) | inactive | – | – | Activity [24]: inactive; Activity [25]: inactive
6 | C/C(=N\NC(=O)c1ccncc1)C(=O)Nc1ccc(C(F)(F)F)cc1 | 4 µM (≈ 1.4 µg/mL) | 2 µM (≈ 0.701 µg/mL) | 4 µM (≈ 1.4 µg/mL) | ≤ 0.03 µM | ≤ 0.03 µM | – | – | > 50 µM | 16 µM (≈ 5.6 µg/mL) | > 12.5 | 32 µM (≈ 11.2 µg/mL) | inactive | > 1670 | > 50 µM | 8 µM (≈ 2.8 µg/mL) | inactive | – | – | –
7 | C/C(=N\NC(=O)c1ccncc1)C(=O)Nc1ccc(I)cc1 | 4 µM (≈ 1.63 µg/mL) | 2 µM (≈ 0.816 µg/mL) | 4 µM (≈ 1.63 µg/mL) | 0.25 µM (≈ 0.102 µg/mL) | 0.25 µM (≈ 0.102 µg/mL) | – | – | > 50 µM | 8 µM (≈ 3.27 µg/mL) | > 12.5 | 8 µM (≈ 3.27 µg/mL) | – | > 200 | > 50 µM | 8 µM (≈ 3.27 µg/mL) | – | 250 µM (≈ 102 µg/mL) | 250 µM (≈ 102 µg/mL) | inhibition [12]: inactive; MIC [14]: 0.5 µM (≈ 0.204 µg/mL); inhibition [17]: Active; inhibition [18]: Active; inhibition [20]: Active
8 | C/C(=N\NC(=O)c1ccncc1)C(=O)Nc1ccc(Cl)cc1 | 8 µM (≈ 2.53 µg/mL) | 4 µM (≈ 1.27 µg/mL) | 16 µM (≈ 5.07 µg/mL) | 0.25 µM (≈ 0.0792 µg/mL) | 0.25 µM (≈ 0.0792 µg/mL) | – | – | > 50 µM | 16 µM (≈ 5.07 µg/mL) | > 3.12 | 16 µM (≈ 5.07 µg/mL) | – | > 200 | > 50 µM | 16 µM (≈ 5.07 µg/mL) | – | 250 µM (≈ 79.2 µg/mL) | 250 µM (≈ 79.2 µg/mL) | –
9 | C/C(=N\NC(=O)c1ccncc1)C(=O)O [PYRUVIC ACID ISONIAZID] | 16 µM (≈ 3.32 µg/mL) | 8 µM (≈ 1.66 µg/mL) | 16 µM (≈ 3.32 µg/mL) | 1 µM (≈ 0.207 µg/mL) | 1 µM (≈ 0.207 µg/mL) | – | – | > 50 µM | 16 µM (≈ 3.32 µg/mL) | > 3.12 | 16 µM (≈ 3.32 µg/mL) | – | > 50 | > 50 µM | 8 µM (≈ 1.66 µg/mL) | – | 500 µM (≈ 104 µg/mL) | > 1000 µM | –
10 | C/C(=N\NC(=O)c1ccncc1)C(=O)Nc1ccc(F)c(F)c1 | 4 µM (≈ 1.27 µg/mL) | 2 µM (≈ 0.637 µg/mL) | 8 µM (≈ 2.55 µg/mL) | 0.5 µM (≈ 0.159 µg/mL) | 0.25 µM (≈ 0.0796 µg/mL) | inactive | inactive | – | – | – | – | – | – | – | – | – | – | – | –
